{
  "source": "patent US20020137929A1",
  "about": "“1 - (3-heterocyclylphenyl) isothiourea, -isourea, -guanidine and -amidine herbicidal agents” (Intellectual Property Department, BASF Aktiengesellschaft, priority 1998, published 2002)",
  "key": {"[1]": {"system": "AMBEL (Ragweed, Common)", "experiment": "Postemergence herbicidal evaluation", "assay_type": "in vivo, Ambrosia artemisifolia", "conditions": "postemergence", "method_in_brief": "(§1)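 Rate range approx. 0.0156–0.500 kg/ha. Foliar application at 40 psi to ~2-week seedlings; surfactant 0.5% TWEEN 20 in 50/50 acetone/water. Evaluation 4–5 wk post-treatment by 0–9 visual injury score, means of replicate tests.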"}, "[2]": {"system": "CASOB (Sicklepod)", "experiment": "Postemergence herbicidal evaluation", "assay_type": "in vivo, Cassia obtusifolia", "conditions": "postemergence", "method_in_brief": "as §1"}, "[3]": {"system": "CHEAL (Lambsquarters, Common)", "experiment": "Postemergence herbicidal evaluation", "assay_type": "in vivo, Chenopodium album", "conditions": "postemergence", "method_in_brief": "as §1"}, "[4]": {"system": "IPOHE (Morningglory, Ivyleaf)", "experiment": "Postemergence herbicidal evaluation", "assay_type": "in vivo, Ipomoea hederacea", "conditions": "postemergence", "method_in_brief": "as §1"}, "[5]": {"system": "ECHCG (Barnyardgrass)", "experiment": "Postemergence herbicidal evaluation", "assay_type": "in vivo, Echinochloa crus-galli", "conditions": "postemergence", "method_in_brief": "as §1"}, "[6]": {"system": "GLXMAW (Soybean, Williams)", "experiment": "Postemergence herbicidal evaluation", "assay_type": "in vivo, Glycine max, (L.) Merr. cv Williams", "conditions": "postemergence", "method_in_brief": "as §1"}, "[7]": {"system": "TRZAWR (Wheat, Winter, cv Riband)", "experiment": "Postemergence herbicidal evaluation", "assay_type": "in vivo, Triticum aestivum", "conditions": "postemergence", "method_in_brief": "as §1"}, "[8]": {"system": "ABUTH (Velvetleaf)", "experiment": "Preemergence herbicidal evaluation", "assay_type": "in vivo, Abutilon theophrasti", "conditions": "preemergence, rated 4-5 weeks after treatment, 0-9 scale", "method_in_brief": "(§2)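 Steps: mix seeds into potting soil; plant atop ~1 inch soil; spray compound in aqueous acetone (~0.0156-0.500 kg/ha equivalent); maintain in greenhouse with watering; rate visually 0-9 versus control at 4-5 weeks.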"}, "[9]": {"system": "AMBEL (Ragweed, Common)", "experiment": "Preemergence herbicidal evaluation", "assay_type": "in vivo, Ambrosia artemisifolia", "conditions": "preemergence, rated 4-5 weeks after treatment, 0-9 scale", "method_in_brief": "as §2"}, "[10]": {"system": "CASOB (Sicklepod)", "experiment": "Preemergence herbicidal evaluation", "assay_type": "in vivo, Cassia obtusifolia", "conditions": "preemergence, rated 4-5 weeks after treatment, 0-9 scale", "method_in_brief": "as §2"}, "[11]": {"system": "CHEAL (Lambsquarters, Common)", "experiment": "Preemergence herbicidal evaluation", "assay_type": "in vivo, Chenopodium album", "conditions": "preemergence, rated 4-5 weeks after treatment, 0-9 scale", "method_in_brief": "as §2"}, "[12]": {"system": "IPOHE (Morningglory, Ivyleaf)", "experiment": "Preemergence herbicidal evaluation", "assay_type": "in vivo, Ipomoea hederacea", "conditions": "preemergence, rated 4-5 weeks after treatment, 0-9 scale", "method_in_brief": "as §2"}, "[13]": {"system": "GLXMAW (Soybean, Williams)", "experiment": "Preemergence herbicidal evaluation", "assay_type": "in vivo, Glycine max, (L.) Merr. cv Williams", "conditions": "preemergence, rated 4-5 weeks after treatment, 0-9 scale", "method_in_brief": "as §2"}, "[14]": {"system": "ORYSAT (Rice, Tebonnet)", "experiment": "Preemergence herbicidal evaluation", "assay_type": "in vivo, Oryza sativa, (L.) Tebonnet", "conditions": "preemergence, rated 4-5 weeks after treatment, 0-9 scale", "method_in_brief": "as §2"}, "[15]": {"system": "MOOVA (Monochoria)", "experiment": "Preemergence weed control under flooded paddy conditions", "assay_type": "in vivo, Monochoria vaginalis", "conditions": "rated 3-4 weeks after treatment", "method_in_brief": "(§3)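 Silt loam, seeds in top 0.5 cm; flood held 1.5-3 cm; test cpd as acetone/water 50/50 into flood water, ~0.0313-0.500 kg/ha a.i.; greenhouse 3-4 wk; visual 0-9 score vs control.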"}, "[16]": {"system": "SAGPY (Arrowhead (Pygmaea))", "experiment": "Preemergence weed control under flooded paddy conditions", "assay_type": "in vivo, Sagittaria pygmaea", "conditions": "rated 3-4 weeks after treatment", "method_in_brief": "as §3"}},
  "data": [
    {"compound": "CN1C(=O)C(CC(=O)NS(=O)(=O)c2ccccc2)SC1=Nc1cc(-n2c(=O)cc(C(F)(F)F)n(C)c2=O)c(F)cc1Cl", "note": "(stereo not drawn) [Compound 102, 2-{{2-Chloro-5-[3,6-dihydro-3-methyl-2,6-dioxo-4-(trifluoromethyl)-1(2H)-pyrimidinyl]-4-fluorophenyl}imino}-3-methyl-4-oxo-N-(phenylsulfonyl)-5-thiazolidineacetamide]", "values": [
      {"measurement": "Herbicidal rating AMBEL", "setting": "[1]; rate 0.0156 kg/ha", "result": 7.0},
      {"measurement": "Herbicidal rating AMBEL", "setting": "[1]; rate 0.0313 kg/ha", "result": 9.0},
      {"measurement": "Herbicidal rating AMBEL", "setting": "[1]; rate 0.0625 kg/ha", "result": 7.0},
      {"measurement": "Herbicidal rating AMBEL", "setting": "[1]; rate 0.1250 kg/ha", "result": 9.0},
      {"measurement": "Herbicidal rating CASOB", "setting": "[2]; rate 0.0156 kg/ha", "result": 0.0},
      {"measurement": "Herbicidal rating CASOB", "setting": "[2]; rate 0.0313 kg/ha", "result": 1.0},
      {"measurement": "Herbicidal rating CASOB", "setting": "[2]; rate 0.0625 kg/ha", "result": 1.0},
      {"measurement": "Herbicidal rating CASOB", "setting": "[2]; rate 0.1250 kg/ha", "result": 3.0},
      {"measurement": "Herbicidal rating CHEAL", "setting": "[3]; rate 0.0156 kg/ha", "result": 3.0},
      {"measurement": "Herbicidal rating CHEAL", "setting": "[3]; rate 0.0313 kg/ha", "result": 4.0},
      {"measurement": "Herbicidal rating CHEAL", "setting": "[3]; rate 0.0625 kg/ha", "result": 6.0},
      {"measurement": "Herbicidal rating CHEAL", "setting": "[3]; rate 0.1250 kg/ha", "result": 7.0},
      {"measurement": "Herbicidal rating IPOHE", "setting": "[4]; rate 0.0156 kg/ha", "result": 9.0},
      {"measurement": "Herbicidal rating IPOHE", "setting": "[4]; rate 0.0313 kg/ha", "result": 9.0},
      {"measurement": "Herbicidal rating IPOHE", "setting": "[4]; rate 0.0625 kg/ha", "result": 9.0},
      {"measurement": "Herbicidal rating IPOHE", "setting": "[4]; rate 0.1250 kg/ha", "result": 9.0},
      {"measurement": "Herbicidal rating ECHCG", "setting": "[5]; rate 0.0156 kg/ha", "result": 0.0},
      {"measurement": "Herbicidal rating ECHCG", "setting": "[5]; rate 0.0313 kg/ha", "result": 1.0},
      {"measurement": "Herbicidal rating ECHCG", "setting": "[5]; rate 0.0625 kg/ha", "result": 2.0},
      {"measurement": "Herbicidal rating ECHCG", "setting": "[5]; rate 0.1250 kg/ha", "result": 6.0},
      {"measurement": "Herbicidal rating GLXMAW", "setting": "[6]; rate 0.0156 kg/ha", "result": 5.0},
      {"measurement": "Herbicidal rating GLXMAW", "setting": "[6]; rate 0.0313 kg/ha", "result": 5.0},
      {"measurement": "Herbicidal rating GLXMAW", "setting": "[6]; rate 0.0625 kg/ha", "result": 6.0},
      {"measurement": "Herbicidal rating GLXMAW", "setting": "[6]; rate 0.1250 kg/ha", "result": 7.5},
      {"measurement": "Herbicidal rating TRZAWR", "setting": "[7]; rate 0.0156 kg/ha", "result": 3.0},
      {"measurement": "Herbicidal rating TRZAWR", "setting": "[7]; rate 0.0313 kg/ha", "result": 3.0},
      {"measurement": "Herbicidal rating TRZAWR", "setting": "[7]; rate 0.0625 kg/ha", "result": 4.5},
      {"measurement": "Herbicidal rating TRZAWR", "setting": "[7]; rate 0.1250 kg/ha", "result": 4.5},
      {"measurement": "ABUTH rating", "setting": "[8]; 0.0156 kg/ha", "result": 0.0},
      {"measurement": "ABUTH rating", "setting": "[8]; 0.0313 kg/ha", "result": 0.0},
      {"measurement": "ABUTH rating", "setting": "[8]; 0.0625 kg/ha", "result": 9.0},
      {"measurement": "ABUTH rating", "setting": "[8]; 0.2500 kg/ha", "result": 6.0},
      {"measurement": "ABUTH rating", "setting": "[8]; 0.5000 kg/ha", "result": 9.0},
      {"measurement": "AMBEL rating", "setting": "[9]; 0.0156 kg/ha", "result": 0.0},
      {"measurement": "AMBEL rating", "setting": "[9]; 0.0313 kg/ha", "result": 0.0},
      {"measurement": "AMBEL rating", "setting": "[9]; 0.0625 kg/ha", "result": 0.0},
      {"measurement": "AMBEL rating", "setting": "[9]; 0.2500 kg/ha", "result": 4.0},
      {"measurement": "AMBEL rating", "setting": "[9]; 0.5000 kg/ha", "result": 7.0},
      {"measurement": "CASOB rating", "setting": "[10]; 0.0156 kg/ha", "result": 0.0},
      {"measurement": "CASOB rating", "setting": "[10]; 0.0313 kg/ha", "result": 0.0},
      {"measurement": "CASOB rating", "setting": "[10]; 0.0625 kg/ha", "result": 0.0},
      {"measurement": "CASOB rating", "setting": "[10]; 0.2500 kg/ha", "result": 0.0},
      {"measurement": "CASOB rating", "setting": "[10]; 0.5000 kg/ha", "result": 4.0},
      {"measurement": "CHEAL rating", "setting": "[11]; 0.0313 kg/ha", "result": 6.0},
      {"measurement": "CHEAL rating", "setting": "[11]; 0.0625 kg/ha", "result": 5.0},
      {"measurement": "CHEAL rating", "setting": "[11]; 0.2500 kg/ha", "result": 1.0},
      {"measurement": "CHEAL rating", "setting": "[11]; 0.5000 kg/ha", "result": 9.0},
      {"measurement": "IPOHE rating", "setting": "[12]; 0.0156 kg/ha", "result": 0.0},
      {"measurement": "IPOHE rating", "setting": "[12]; 0.0313 kg/ha", "result": 0.0},
      {"measurement": "IPOHE rating", "setting": "[12]; 0.0625 kg/ha", "result": 0.0},
      {"measurement": "IPOHE rating", "setting": "[12]; 0.2500 kg/ha", "result": 1.0},
      {"measurement": "IPOHE rating", "setting": "[12]; 0.5000 kg/ha", "result": 9.0},
      {"measurement": "GLXMAW rating", "setting": "[13]; 0.0156 kg/ha", "result": 0.0},
      {"measurement": "GLXMAW rating", "setting": "[13]; 0.0313 kg/ha", "result": 0.0},
      {"measurement": "GLXMAW rating", "setting": "[13]; 0.0625 kg/ha", "result": 0.0},
      {"measurement": "GLXMAW rating", "setting": "[13]; 0.2500 kg/ha", "result": 1.0},
      {"measurement": "GLXMAW rating", "setting": "[13]; 0.5000 kg/ha", "result": 4.0},
      {"measurement": "ORYSAT rating", "setting": "[14]; 0.0156 kg/ha", "result": 0.0},
      {"measurement": "ORYSAT rating", "setting": "[14]; 0.0313 kg/ha", "result": 0.0},
      {"measurement": "ORYSAT rating", "setting": "[14]; 0.0625 kg/ha", "result": 0.0},
      {"measurement": "ORYSAT rating", "setting": "[14]; 0.2500 kg/ha", "result": 0.0},
      {"measurement": "ORYSAT rating", "setting": "[14]; 0.5000 kg/ha", "result": 1.0},
      {"measurement": "MOOVA herbicidal effect rating", "setting": "[15]; 0.2500 kg/ha", "result": 0.0},
      {"measurement": "MOOVA herbicidal effect rating", "setting": "[15]; 0.5000 kg/ha", "result": 4.0},
      {"measurement": "SAGPY herbicidal effect rating", "setting": "[16]; 0.2500 kg/ha", "result": 0.0},
      {"measurement": "SAGPY herbicidal effect rating", "setting": "[16]; 0.5000 kg/ha", "result": 0.0}
    ]}
  ]
}
